Among the test systems are HOP-62 NSCLC; PC-3 prostate; RXF 393 renal; DU-145 prostate; KM12 colon; MDA-MB-231 breast; 786-0 renal; HCT-116 colon; IGROV1 ovarian; SF-268 CNS.
Common to all, as to test: inhibition of tumour cell growth, NCI panel, 48 h

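Grown in 96-well plates, cells were treated for 48 hours with each compound at five concentrations. Insufficient inhibition: endpoint recorded as highest concentration tested. GI50 = concentration required for 50% inhibition of growth. The concentration for full growth arrest is given as TGI.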

On to `CC1=C(C2=C(C)C(=O)C(=O)c3cc(C)ccc32)c2ccc(C)cc2C(=O)C1=O`, for which the TGI was determined as 2.59 µM in the test on HOP-62 NSCLC; 1.04 µM in the test with PC-3 prostate; 0.62 µM in the test on RXF 393 renal; 2.84 µM in the test with DU-145 prostate; 0.447 µM in the test with KM12 colon; 0.91 µM with MDA-MB-231 breast. Further, the figures for the TGI with 786-0 renal and in the test on HCT-116 colon were 1.45 µM and 1 µM, respectively.

As to `O=c1c2cc(Br)ccc2oc2nc3n(c(=O)c12)CCCS3`, the TGI with IGROV1 ovarian, in the test on HOP-62 NSCLC, in the test with PC-3 prostate, with SF-268 CNS, in the test on RXF 393 renal and in the test with DU-145 prostate was over 100 µM each time. Besides, the TGI in the test on KM12 colon, in the test with MDA-MB-231 breast, with 786-0 renal and in the test on HCT-116 colon was over 100 µM in each case.

As for `C=C1CC/C=C(/C(=O)O)CC[C@H]2[C@@H]1CC2(C)C`, the TGI in the test with IGROV1 ovarian, with HOP-62 NSCLC, in the test on PC-3 prostate, in the test with SF-268 CNS, in the test on RXF 393 renal and with DU-145 prostate was over 100 µM each time. Besides, the TGI with KM12 colon, with MDA-MB-231 breast, in the test on 786-0 renal and in the test on HCT-116 colon was over 100 µM in each case.

`CC(C)CCCC(C)[C@H]1CC[C@H]2[C@@H]3CC[C@H]4C[C@@H](CCC=C(c5cc(Cl)c(O)c(C(=O)OC(C)(C)C)c5)c5cc(Cl)c(O)c(C(=O)OC(C)(C)C)c5)CC[C@]4(C)[C@H]3CC[C@]12C` (stereo not given in full): the TGI with IGROV1 ovarian, in the test with HOP-62 NSCLC, with PC-3 prostate, in the test on SF-268 CNS, in the test with RXF 393 renal and in the test with DU-145 prostate was over 50 µM in each case. In addition, the TGI in the test on KM12 colon, with MDA-MB-231 breast, with 786-0 renal and in the test on HCT-116 colon was over 50 µM each time.

`COc1ccc(-c2cc(-c3ccc(Nc4ccnc5cc(C(F)(F)F)ccc45)cc3)[nH]c(=O)c2C#N)c2ccccc12`: the TGI with IGROV1 ovarian is over 100 µM; in the test on HOP-62 NSCLC, 47.2 µM; with PC-3 prostate it was over 100 µM; in the test on SF-268 CNS, over 100 µM; in the test on RXF 393 renal, 46.1 µM; in the test with DU-145 prostate, over 83.7 µM. Besides, the TGI is over 100 µM in the test on KM12 colon, over 59.8 µM with MDA-MB-231 breast, over 100 µM with 786-0 renal and over 100 µM with HCT-116 colon.

Consider `NC1CC2C3CCC2C1C3=O` (stereo not given), for which the TGI in the test on IGROV1 ovarian, with HOP-62 NSCLC, with PC-3 prostate, in the test with SF-268 CNS, in the test with RXF 393 renal and in the test with DU-145 prostate was over 100 µM in each case. In addition, the TGI in the test on KM12 colon, in the test on MDA-MB-231 breast, with 786-0 renal and in the test on HCT-116 colon was over 100 µM each time.

In the case of `COc1nn(Cc2ccccc2F)c2ccc([N+](=O)[O-])cc12`, the TGI in the test with IGROV1 ovarian was over 100 µM; with HOP-62 NSCLC, over 100 µM; in the test on PC-3 prostate, over 100 µM; with SF-268 CNS, over 100 µM; in the test with RXF 393 renal, over 83.6 µM; in the test on DU-145 prostate, over 100 µM. The TGI in the test on KM12 colon, with MDA-MB-231 breast, in the test with 786-0 renal and with HCT-116 colon was over 100 µM in each case.

As to `COc1cc(/C=C2\N=C(c3ccccc3)N(C3Nc4cc5c(cc4S3)NC(N3C(=O)/C(=C/c4cc(OC)c(OC)c(OC)c4)N=C3c3ccccc3)S5)C2=O)cc(OC)c1OC` (stereo not given), the TGI in the test on IGROV1 ovarian, in the test on HOP-62 NSCLC, in the test with PC-3 prostate, with SF-268 CNS, in the test with RXF 393 renal and with DU-145 prostate was over 100 µM throughout. In addition, the TGI with KM12 colon, with MDA-MB-231 breast, with 786-0 renal and in the test on HCT-116 colon was over 100 µM in each case.

For `CN1CCN(CC(=O)Nc2ccc3ncnc(Nc4ccc(Oc5cccc(C(F)(F)F)c5)c(Cl)c4)c3c2)CC1`, the GI50 with PC-3 prostate was 1.69 µM; with SF-268 CNS, 1.49 µM; in the test on RXF 393 renal, 1.41 µM; in the test with DU-145 prostate it was 1.4 µM; with KM12 colon it was 1.79 µM; in the test with MDA-MB-231 breast, 1.78 µM. For the same molecule, the TGI was 3.26 µM in the test on PC-3 prostate; 3.11 µM in the test on SF-268 CNS; 2.89 µM in the test on RXF 393 renal; 2.71 µM in the test with DU-145 prostate; 3.3 µM with KM12 colon; 3.3 µM in the test with MDA-MB-231 breast.

For the molecule `N#Cc1c(=O)c2cc([N+](=O)[O-])ccc2n2c1[nH]c1ccccc12`, the TGI in the test with IGROV1 ovarian is over 83.7 µM; with HOP-62 NSCLC it was 97.7 µM; in the test with PC-3 prostate, over 100 µM; with SF-268 CNS, over 100 µM; in the test with RXF 393 renal, over 100 µM; in the test on DU-145 prostate, over 100 µM. Besides, the TGI in the test on KM12 colon was over 57.2 µM; with MDA-MB-231 breast it was over 57.4 µM; in the test with 786-0 renal, over 100 µM; in the test with HCT-116 colon it was over 40.1 µM.

With `C#CC(O)/C=C/CCCCCCC#CC/C=C\CC#CCCCCCC/C=C/C(O)C#C` (stereo not given), the TGI in the test on IGROV1 ovarian amounted to 2.17 µM; in the test on HOP-62 NSCLC, 4.72 µM; in the test with PC-3 prostate it was 24.4 µM; in the test with SF-268 CNS, 10.8 µM; with RXF 393 renal, 28.3 µM; in the test on DU-145 prostate it was 8.99 µM. Besides, the TGI in the test on KM12 colon was determined as 5.29 µM; with MDA-MB-231 breast, 8.9 µM; in the test with 786-0 renal, 5.23 µM; in the test with HCT-116 colon, 4.02 µM.

In the case of `Cc1cccc(-c2cc(=O)c3ccc(C)nc3[nH]2)c1`, the TGI in the test with IGROV1 ovarian was over 100 µM; with HOP-62 NSCLC it was over 100 µM; in the test with PC-3 prostate, over 82.9 µM; in the test on SF-268 CNS, over 100 µM; in the test on RXF 393 renal, over 100 µM; in the test on DU-145 prostate it was over 56.9 µM. For the same molecule, the TGI was 20.5 µM in the test with KM12 colon, 5.87 µM in the test on MDA-MB-231 breast, over 100 µM in the test with 786-0 renal and over 20.4 µM in the test on HCT-116 colon.

`N=c1c2c3n(c4c(=O)n(-c5ccccc5)c(=S)n(c(=O)n1-c1ccccc1)c24)CCCCC3`: the TGI in the test with IGROV1 ovarian, with HOP-62 NSCLC, in the test on PC-3 prostate, in the test on SF-268 CNS, in the test on RXF 393 renal and with DU-145 prostate was over 100 µM each time. The TGI in the test on KM12 colon, in the test on MDA-MB-231 breast, in the test on 786-0 renal and in the test on HCT-116 colon was over 100 µM each time.

Values taken from PubChem BioAssay (NCI).
